Non-standard residues stand in square brackets, D forms with d. Residues, ends and D or L forms follow the SMILES beside them. *: point of attachment. Leu(ol) = CC(C)C[C@H](N)CO; dIva = CC[C@@](C)(N)C(=O)O; Octanoyl = CCCCCCCC(=O)*; Aib = CC(C)(N)C(=O)O
Key:
Type in all cases: functional, cell-based
[1] = test system: HL-60; experiment: Cytotoxicity against human HL60 cells after 48 hrs by MTT assay; conditions: HL-60, 48 h
[2] = test system: LS180; experiment: Cytotoxicity against human LS180 cells after 48 hrs by MTT assay; conditions: LS180, 48 h
[3] = test system: MDA-MB-231; experiment: Cytotoxicity against human MDA-MB-231 cells after 48 hrs by MTT assay; conditions: MDA-MB-231, 48 h
[4] = test system: A549; experiment: Cytotoxicity against human A549 cells after 48 hrs by MTT assay; conditions: A549, 48 h

SMILES	IC50 [1] [µM]	IC50 [2] [µM]	IC50 [3] [µM]	IC50 [4] [µM]
CCCCCCCC(=O)NCC(=O)N[C@@H](C)C(=O)N[C@@H](CC(C)C)C(=O)N[C@](C)(CC)C(=O)N[C@@H](CO)C(=O)N[C@H](C(=O)N[C@H](CO)CC(C)C)[C@@H](C)CC	2	> 30	4	30
CCCCCCCC(=O)NCC(=O)N[C@@H](C)C(=O)N[C@@H](CC(C)C)C(=O)NC(C)(C)C(=O)N[C@@H](C)C(=O)N[C@H](C(=O)N[C@H](CO)CC(C)C)[C@@H](C)CC (Octanoyl-GAL[Aib]AI[Leu(ol)])	16	> 30	16	17
CCCCCCCC(=O)NCC(=O)N[C@@H](C)C(=O)N[C@@H](CC(C)C)C(=O)NC(C)(C)C(=O)N[C@@H](CO)C(=O)N[C@H](C(=O)N[C@H](CO)CC(C)C)[C@@H](C)CC (Octanoyl-GAL[Aib]SI[Leu(ol)])	> 30	> 30	> 30	30
CCCCCCCC(=O)NCC(=O)N[C@@H](C)C(=O)N[C@@H](CC(C)C)C(=O)N[C@](C)(CC)C(=O)N[C@@H](C)C(=O)N[C@H](C(=O)N[C@H](CO)CC(C)C)[C@@H](C)CC (Octanoyl-GAL[dIva]AI[Leu(ol)])	4	7	5	4
CC(=O)O[C@H]1C(=O)[C@@]2(C)[C@H]([C@H](OC(=O)c3ccccc3)[C@]3(O)C[C@H](OC(=O)[C@H](O)[C@@H](NC(=O)c4ccccc4)c4ccccc4)C(C)=C1C3(C)C)[C@]1(OC(C)=O)CO[C@@H]1C[C@@H]2O [PACLITAXEL]	–	0.0028	–	–

Reference: ChEMBL document CHEMBL4138277, “Lipovelutibols A-D: Cytotoxic Lipopeptaibols from the Himalayan Cold Habitat Fungus Trichoderma velutinum” (J Nat Prod, 2018)
